{"source": "patent US20050020668A1", "about": "“Combination comprising S-[2-([[1-(2-ethylbutyl)cyclohexyl] carbonyl]amino)phenyl] 2-methylpropanethioate and an HMG CoA reductase inhibitor” (Japan Tobacco Inc., priority 2003, published 2005)", "key": {"[1]": {"system": "male Japanese white rabbits receiving a high-cholesterol diet", "test": "Atherogenic index in rabbits receiving a high-cholesterol diet", "assay_type": "in vivo, rabbit", "settings": "control group = 100%, in 0.2% cholesterol diet for 7 days: Compound I 0.5%", "protocol": "Prior to commencement of the study, male Japanese white rabbits (KITAYAMA LABES Co., Ltd.) received a normal diet (RC-4, manufactured by Oriental Bio-Service Inc.) (Time Period 1) and water ad libitum. For preliminary feeding, male Japanese white rabbits were provided with a high cholesterol diet comprising 100 g/day per rabbit of RC-4 containing 0.2% cholesterol (manufactured by Oriental Bio-Service Inc.) for 4 weeks (Time Period 2). […] For 7 days (Time Period 3), each group was administered a high cholesterol diet comprising 100 g/day per rabbit of RC-4 containing 0.2% cholesterol and one of the following: • (1) Control (no additional components) • (2) Compound I (0.5%) • (3) Simvastatin (extracted and purified from LipovasTM Tablets-5, Banyu Pharmaceutical Co.) (0.075%) • (4) Atorvastatin calcium trihydrate (extracted and purified from LipitorTM Tablets-10, Pfizer Inc.) (0.075%) • (5) Rosuvastatin calcium (extracted and purified from CrestorTM Tablets, Astra Zeneca) (0.025%) • (6) Compound I (0.5%)+simvastatin (0.075%) • (7) Compound I (0.5%)+atorvastatin calcium trihydrate (0.075%) • (8) Compound I (0.5%)+rosuvastatin calcium (0.025%) […] Atherogenic index was calculated as follows: [(total cholesterol content-HDL cholesterol content)/HDL cholesterol content]. […] A similar experiment was conducted to evaluate the effect of the administration of Compound I and pravastatin sodium ([…] Ltd.) on 12-week old male Japanese white rabbits receiving a high-cholesterol diet."}, "[2]": {"system": "patients with type II hyperlipidemia", "test": "Clinical study: Compound I added to pravastatin sodium therapy, lipid parameters", "assay_type": "in vivo, human", "settings": "for Mean percent change of HDL-C from levels before administration of Compound I / Mean percent change of LDL-C from levels before administration of Compound I / Mean percent change of LDL-C/HDL-C ratio from levels before administration of Compound I / Mean percent change of TC/HDL-C ratio from levels before administration of Compound I: Visit 5 or 6 vs average of Visits 3 and 4, per protocol", "description": "(§1) This example describes a multi-center, randomized, double-blind, placebo-controlled, parallel group study designed to evaluate the therapeutic effect of the combination of S-[2-([[1-(2-ethylbutyl)cyclohexyl]carbonyl]amino)phenyl]2-methylpropanethioate (Compound I) and pravastatin sodium in patients with hyperlipidemia.\nApproximately 200 patients with type II hyperlipidemia were enrolled in the study to ensure that about 150 patients (about 50 patients per treatment group) completed the study. The patients met the following criteria: • (i) LDL-C>4.0 mmol/L (160 mg/dL), • (ii) HDL-C<1.6 mmol/L (60 mg/dL), • (iii) triglycerides<4.5 mmol/L (400 mg/dL), and • (iv) age 18-65 years.\n(§2) The total study duration was 16 weeks, which consisted of three periods. During Period 1, the first 8 weeks of the study, 40 mg of pravastatin sodium was taken once daily at bedtime by all enrolled patients. Patients were then randomized to receive placebo or 300 mg or 600 mg of Compound I once daily following breakfast for Period 2, the next 4-week period, in addition to the continued pravastatin sodium treatment. During Period 3, the last 4 weeks of the study, pravastatin sodium was administered alone.\nEach pravastatin sodium tablet comprised 40 mg of pravastatin sodium that was provided as a branded commercial product (Selektine™, Bristol-Myers Squibb B.V.). Each Compound I tablet contained 300 mg of Compound I and was supplied as a white oval tablet that is identical in appearance to the placebo tablet. The uncoated white tablets comprising Compound I were prepared using standard tableting procedures. The tablets comprised 300 mg of Compound I, 18 mg of hydroxypropylmethyl cellulose 2910 as a binder, 18 mg of talc and 1.2 mg of magnesium stearate as lubricants, and 119.8 mg of crospovidone and 90 mg of low-substituted hydroxypropyl cellulose as disintegrants.\nAll patients received 2 uncoated white tablets, such that each patient received either (a) one 300 mg Compound I tablet and one placebo tablet, (b) two 300 mg Compound I tablets, or (c) two placebo tablets during Period 2.\n(§3) Blood samples were taken at Visit 1 (−10 weeks relative to commencement of treatment with Compound I or placebo) to determine eligibility, and at Visit 2 (−8 weeks; commencement of treatment with pravastatin sodium), Visit 3 (−2 weeks), Visit 4 (commencement of treatment with Compound I or placebo), Visit 5 (+2 weeks after commencement of treatment with Compound I or placebo), Visit 6 (+4 weeks; end of treatment with Compound I or placebo), and Visit 7 (+8 weeks; end of treatment with pravastatin sodium). Each blood sample was tested for levels of lipid parameters (e.g., total cholesterol, triglycerides, HDL-C, LDL-C), CETP activity and mass, the plasma concentration of Compound I (trough level), as well as laboratory safety parameters (e.g., urinalysis, biochemistry, and hematology).\nEfficacy analyses included both descriptive summary and statistical modeling, such as analysis of variance (ANOVA) or analysis of covariance (ANCOVA). The descriptive summary included frequencies and percentages for categorical variables and statistics such as the number of available observations, mean, median, standard deviation, minimum, and maximum for all variables.\nTo determine the effect of the administration of Compound I on a patient receiving HMG CoA reductase inhibitor therapy, the mean values of HDL-C, LDL-C, TC/HDL-C ratio, LDL-C/HDL-C ratio, and CETP activity before administration of Compound I (average of values at Visits 3 and 4) and after the administration of Compound I (Visit 5 or 6) were compared. An ANOVA model containing treatment and center effects was used. […]"}, "[3]": {"molecular_target": "T1, CETP (Homo sapiens, UniProt P11597)", "T1 construct": "from tissue; host or cells: blood (plasma) samples of hyperlipidemic patients", "T1 sequence (P11597 18-493)": "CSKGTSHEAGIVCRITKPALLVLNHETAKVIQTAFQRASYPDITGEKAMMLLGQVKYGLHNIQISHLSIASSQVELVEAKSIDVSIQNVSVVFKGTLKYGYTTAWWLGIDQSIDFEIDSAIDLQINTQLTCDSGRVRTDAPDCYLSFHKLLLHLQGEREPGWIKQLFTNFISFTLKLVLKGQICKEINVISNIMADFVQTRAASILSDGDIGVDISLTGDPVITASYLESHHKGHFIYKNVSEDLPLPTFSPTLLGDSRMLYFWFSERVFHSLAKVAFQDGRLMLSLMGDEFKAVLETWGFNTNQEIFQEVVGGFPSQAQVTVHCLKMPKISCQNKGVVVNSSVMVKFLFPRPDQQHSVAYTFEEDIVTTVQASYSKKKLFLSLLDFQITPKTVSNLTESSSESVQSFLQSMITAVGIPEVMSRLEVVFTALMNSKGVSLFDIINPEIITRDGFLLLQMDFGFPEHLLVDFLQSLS", "test": "Clinical study: Compound I added to pravastatin sodium therapy, CETP activity in blood samples", "assay_type": "in vivo", "settings": "for Mean percent change of CETP activity from levels before administration of Compound I: Visit 5 or 6 vs average of Visits 3 and 4, per protocol; for Decrease in CETP activity relative to levels achieved by pravastatin sodium alone: patients receiving pravastatin sodium therapy", "protocol": "CETP activity is measured essentially as described in Tollefson et al., Methods Enzymol., 129, 797-816 (1986), and Kato et al., J. Biol. Chem., 264, 4082-4087 (1989). Preferably, the CETP activity at 2 weeks (or 4 weeks, 8 weeks, 12 weeks, or six months) post-treatment initiation is decreased by about 5% or more relative to CETP activity pretreatment (e.g., about 7.5% or more, about 10% or more, about 15% or more, about 20% or more, about 25% or more, about 30% or more, about 35% or more, about 40% or more, about 45% or more, about 50% or more, about 55% or more, about 60% or more, or about 65% or more).\nas §1, §2\nas §3, with “hematology). […]” for “hematology).”\nTable 2 describes the percent change in HDL-C, LDL-C, TC/HDL-C ratio, LDL-C/HDL-C ratio, and CETP activity from the values of patients receiving pravastatin sodium therapy (average of Visit 3 and 4 values) to the values following administration of Compound I or placebo and pravastatin sodium (Visit 5 or 6). P values were determined by comparing the groups administered Compound I to the placebo group using an ANOVA model with percent change as the dependent variable and treatment and center as the fixed effects. […]"}, "[4]": {"settings": "Table 3 experiment, simvastatin 0.075%, atorvastatin calcium trihydrate 0.075%, rosuvastatin calcium 0.025%, blood 8 hours after feeding on Day 7"}, "[5]": {"settings": "300 mg Compound I once daily + 40 mg pravastatin sodium, n = 45"}, "[6]": {"settings": "300 mg treatment group, patients receiving pravastatin sodium therapy"}, "[7]": {"settings": "600 mg Compound I once daily + 40 mg pravastatin sodium, n = 42"}, "[8]": {"settings": "600 mg treatment group, patients receiving pravastatin sodium therapy"}, "[9]": {"settings": "Table 4 experiment, pravastatin sodium 0.075%"}}, "note": "Marks after values point to notes of the source that are not given here.", "data": [{"smiles": "CCC(C)(C)C(=O)O[C@H]1C[C@@H](C)C=C2C=C[C@H](C)[C@H](CC[C@@H]3C[C@@H](O)CC(=O)O3)[C@H]21", "note": "[Simvastatin]", "values": [{"measurement": "Atherogenic Index (%)", "setting": "[1]; [4]", "value": 51, "unit": "%"}]}, {"smiles": "CCC(CC)CC1(C(=O)Nc2ccccc2SC(=O)C(C)C)CCCCC1", "note": "[Compound I, S-[2-([[1-(2-ethylbutyl)cyclohexyl]carbonyl]amino)phenyl]2-methylpropanethioate]", "values": [{"measurement": "Mean percent change of HDL-C from levels before administration of Compound I", "setting": "[2]; [5]", "value": "12.96* %"}, {"measurement": "Mean percent change of LDL-C from levels before administration of Compound I", "setting": "[2]; [5]", "value": 1.57, "unit": "%"}, {"measurement": "Mean percent change of LDL-C/HDL-C ratio from levels before administration of Compound I", "setting": "[2]; [5]", "value": "−10.31^† %"}, {"measurement": "Mean percent change of TC/HDL-C ratio from levels before administration of Compound I", "setting": "[2]; [5]", "value": "−8.09^† %"}, {"measurement": "Decrease in LDL-C/HDL-C ratio relative to levels achieved by pravastatin sodium alone", "setting": "[2]; [6]", "value": "about 10%"}, {"measurement": "Decrease in TC/HDL-C ratio relative to levels achieved by pravastatin sodium alone", "setting": "[2]; [6]", "value": "about 8%"}, {"measurement": "Increase in HDL-C levels relative to levels achieved by pravastatin sodium alone", "setting": "[2]; [6]", "value": "about 13%"}, {"measurement": "Mean percent change of HDL-C from levels before administration of Compound I", "setting": "[2]; [7]", "value": "28.43* %"}, {"measurement": "Mean percent change of LDL-C from levels before administration of Compound I", "setting": "[2]; [7]", "value": "−7.91^‡ %"}, {"measurement": "Mean percent change of LDL-C/HDL-C ratio from levels before administration of Compound I", "setting": "[2]; [7]", "value": "−26.03* %"}, {"measurement": "Mean percent change of TC/HDL-C ratio from levels before administration of Compound I", "setting": "[2]; [7]", "value": "−18.72* %"}, {"measurement": "Decrease in LDL-C levels relative to level achieved by pravastatin sodium alone", "setting": "[2]; [8]", "value": "about 8%"}, {"measurement": "Decrease in LDL-C/HDL-C ratio relative to levels achieved by pravastatin sodium alone", "setting": "[2]; [8]", "value": "about 26%"}, {"measurement": "Decrease in TC/HDL-C ratio relative to levels achieved by pravastatin sodium alone", "setting": "[2]; [8]", "value": "about 19%"}, {"measurement": "Increase in HDL-C levels relative to levels achieved by pravastatin sodium alone", "setting": "[2]; [8]", "value": "about 28%"}, {"measurement": "Mean percent change of CETP activity from levels before administration of Compound I", "setting": "[3]; [5]", "value": "−18.10* %"}, {"measurement": "Decrease in CETP activity relative to levels achieved by pravastatin sodium alone", "setting": "[3]; 300 mg treatment group", "value": "about 18%"}, {"measurement": "Mean percent change of CETP activity from levels before administration of Compound I", "setting": "[3]; [7]", "value": "−31.62* %"}, {"measurement": "Decrease in CETP activity relative to levels achieved by pravastatin sodium alone", "setting": "[3]; 600 mg treatment group", "value": "about 32%"}, {"measurement": "Atherogenic Index (%)", "setting": "[1]; [4]", "value": 54, "unit": "%"}, {"measurement": "Atherogenic Index (%)", "setting": "[1]; [9]", "value": 60, "unit": "%"}]}, {"smiles": "CC(C)c1nc(N(C)S(C)(=O)=O)nc(-c2ccc(F)cc2)c1/C=C/[C@@H](O)C[C@@H](O)CC(=O)[O-].CC(C)c1nc(N(C)S(C)(=O)=O)nc(-c2ccc(F)cc2)c1/C=C/[C@@H](O)C[C@@H](O)CC(=O)[O-].[Ca+2]", "note": "[Rosuvastatin calcium]", "values": [{"measurement": "Atherogenic Index (%)", "setting": "[1]; [4]", "value": 81, "unit": "%"}]}, {"smiles": "CC(C)c1c(C(=O)Nc2ccccc2)c(-c2ccccc2)c(-c2ccc(F)cc2)n1CC[C@@H](O)C[C@@H](O)CC(=O)O", "note": "[Atorvastatin calcium trihydrate]", "values": [{"measurement": "Atherogenic Index (%)", "setting": "[1]; [4]", "value": 49, "unit": "%"}]}, {"smiles": "CC[C@H](C)C(=O)O[C@H]1C[C@H](O)C=C2C=C[C@H](C)[C@H](CC[C@@H](O)C[C@@H](O)CC(=O)O)[C@H]21", "note": "[Pravastatin sodium]", "values": [{"measurement": "Atherogenic Index (%)", "setting": "[1]; [9]", "value": 40, "unit": "%"}]}]}
